According to patent publication US4798844A, “Chemotherapeutant composition” (Shikoku Chemicals Corporation, priority 1987, dated 1989):
Structures can show the parent of a compound that is named as a salt.

Experiments:
skin = test: Primary irritation to skin; format: in vivo, rabbit
From the text: It is seen that the compound is a non-irritating substance.

[1] = Migration in blood after oral administration; format: in vivo; details: rat, oral 300 mg/kg; for Concentration in Blood: gum arabic suspension, compound bonded with small blood protein (fraction MW 10,000)
Procedure: The compound obtained in Example 1 was orally administered at a dose of 300 mg/kg in the form of a suspension in gum arabic to a rat, and the change of the concentration in blood was examined by the high-speed liquid chromatography.
Each value is the concentration of the compound bonded with a blood protein having a small molecular weight (fraction molecular weight=10,000).

[2] = test system: Trichophyton mentagrophytes; test: Curative effect to trichophytosis; format: in vivo, guinea pig; details: for Number of Colonies in Skin Pieces after 3 days' stoppage of administration: 10 days, then 3 days stopped, control 3.4 × 10^3; for Number of Colonies in Skin Pieces after 10 days' administration: control 4.1 × 10^3
From the text: A guinea pig was skin-infected with Trichophyton mentagrophytes, and after two days had passed from the infection, the compound obtained in Example 1 was orally administered in the form of a suspension in gum arabic once a day for 10 days and the pharmaceutical effect was examined. Then, the administraion of the compound was stopped for 3 days and the recovery state was examined.

[3] = Acute toxicity (oral LD50); format: in vivo; details: mouse, in vivo, po, LD50 Value
From the text: (§1) It is seen that the actue toxicity of the compound is very low.

mouse = test: Acute toxicity (oral LD50); format: in vivo
From the text: as §1

Bacillus subtilis = test: Antimicrobial activity to pathogenic bacteria (MIC, agar plate dilution); format: cell-based; details: Japanese Chemotherapeutic Association
Procedure: (§2) The minimum inhibitory concentrations to pathogenic bacteria shown in Table 2 were determined by the agar plate dilution process according to the standard method of the Japanese Chemotherapeutic Association.

Streptococcus faecalis = test: as above; format: cell-based; details: Enterococcus faecalis, Japanese Chemotherapeutic Association
Procedure: as §2

Streptococcus pyogenes = test: as above; format: cell-based; details: Japanese Chemotherapeutic Association
Procedure: as §2

Staphylococcus aureus = test: as above; format: cell-based; details: Japanese Chemotherapeutic Association
Procedure: as §2

Candida albicans [4] = test: Curative effect to candidiasis; format: in vivo, mouse; details: after two days; for Survival Ratio: 1.4 hours after infection, control 0/3
Procedure: A mouse was infected with Candida albicans, and when 1.4 hours had passed from the infection, the compound obtained in Example 1 was orally administered in the form of a suspension in gum arabic. After two days, the pharmaceutical effect was examined.

Trichophyton tonsurans = test: Antimicrobial activity to pathogenic true fungi (MIC); format: cell-based; details: Sabourauds agar medium, 25° C., 7 to 14 days
Procedure: (§3) A true fungus shown in Table 1 was cultured in Sabourauds agar medium at 25° C. for 7 to 14 days, and the minimum inhibitory concentration (MIC value, μg/ml) was determined.

Trichophyton rubrum = test: as above; format: cell-based; details: Sabourauds agar medium, 25° C., 7 to 14 days
Procedure: as §3

Candida albicans [5] = test: as above; format: cell-based; details: Sabourauds agar medium, 25° C., 7 to 14 days
Procedure: as §3

Aspergillus niger = test: as above; format: cell-based; details: Sabourauds agar medium, 25° C., 7 to 14 days
Procedure: as §3

Aspergillus fumigatus = test: as above; format: cell-based; details: Sabourauds agar medium, 25° C., 7 to 14 days
Procedure: as §3

[6] = test system: Trichophyton mentagrophytes; test: as above; format: cell-based; details: Sabourauds agar medium, 25° C., 7 to 14 days
Procedure: as §3

Microsporum gypseum = test: as above; format: cell-based; details: Nannizzia gypsea; Sabourauds agar medium, 25° C., 7 to 14 days
Procedure: as §3

O=C(C(=Cc1ccc(Cl)cc1Cl)n1ccnc1)c1ccc(Cl)cc1 [Example 1, 1-(4-chlorophenyl)-2-(1H-imidazolyl)-3-(2,4-dichlorophenyl)-2-propen-1-onehydrochloride]
primary irritation to skin (skin; in words): non-irritating | Primary Irritation Ratio (skin; rabbit, coating concentration 100%): 0.72 | Concentration in Blood ([1]; 0 hours): 0 ng/mL | Concentration in Blood ([1]; 2 hours): 1200 ng/mL | Concentration in Blood ([1]; 4 hours): 2970 ng/mL | Concentration in Blood ([1]; 6 hours): 9070 ng/mL | Concentration in Blood ([1]; 8 hours): 4260 ng/mL | Concentration in Blood ([1]; 12 hours): 5620 ng/mL | Concentration in Blood ([1]; 24 hours): 1500 ng/mL | time to maximum concentration in blood ([1]; suspension in gum arabic): within several hours | Number of Colonies in Skin Pieces after 3 days' stoppage of administration ([2]; 50 mg/kg oral once a day): annihilated | Number of Colonies in Skin Pieces after 10 days' administration ([2]; 50 mg/kg oral once a day): annihilated | Number of Colonies in Skin Pieces after 3 days' stoppage of administration ([2]; 100 mg/kg oral once a day): annihilated | Number of Colonies in Skin Pieces after 10 days' administration ([2]; 100 mg/kg oral once a day): annihilated | LD50 [3]: 2950 mg/kg | LD50 Value (mouse; in vivo, po): 3100 mg/kg | acute toxicity (mouse; oral, in words): very low | MIC (Bacillus subtilis): 3.12 µg/mL | MIC (Streptococcus faecalis): 3.12 µg/mL | MIC (Streptococcus pyogenes): 3.12 µg/mL | MIC (Staphylococcus aureus): 1.56 µg/mL | Survival Ratio (Candida albicans [4]; 50 mg/kg oral): 1/3 | Number of Living Cells in Kidney of Survivor Mouse (Candida albicans [4]; 50 mg/kg oral): substantially annihilated | Survival Ratio (Candida albicans [4]; 100 mg/kg oral): 2/3 | MIC (Trichophyton tonsurans): < 1.25 µg/mL | MIC (Trichophyton rubrum): < 1.25 µg/mL | MIC (Candida albicans [5]): < 6.25 µg/mL | MIC (Aspergillus niger): 3.12 µg/mL | MIC (Aspergillus fumigatus): 3.12 µg/mL | MIC [6]: < 1.25 µg/mL | MIC (Microsporum gypseum): < 1.25 µg/mL
